Blank lines part the entries; values can stand above or below the compound they belong to.
Columns and labels:
[1] = physical stability test of aqueous metronidazole compositions (crystal formation or precipitation); assay type: physicochemical; details: for Results from stability test: 1.0% metronidazole, 24 hours room temperature, then 7 days at about 4 °C; for concentration of the solubility enhancing agent required to obtain a stable aqueous solution of 1.0% metronidazole: agent used as the only solubility enhancing agent, stability test of Example 1; for N-2-hydroxyethyl urea concentration functionally equivalent to 1% of the agent in inducing the solubility enhancing effect: worked out from Examples 2, 3 and 4
Experimental: The solubility enhancing effect of the combination of niacinamide, urea, and hydroxyalkyl urea in increasing the solubility of metronidazole in the aqueous compositions is evaluated by physical stability of the prepared compositions.
Therefore, the compositions in accordance with the present invention are subject to a physical stability test. The protocol for the stability test is as follows: metronidazole and the solubility enhancing agents are combined with water either at room temperature or elevated temperature while stirring until dissolved. The solutions are permitted to cool to room temperature. Customary auxiliaries and additives may be added to the aqueous solutions containing solubilized metronidazole and solubility enhancing agents. The solutions may be gelled by using the suitable gelling agents. The compositions both in gel or solution form are then packaged in clear glass vials and sealed. The vials are kept at room temperature for 24 hours and monitored for crystal formation or precipitation. After 24 hours, the vials are placed in a refrigerator maintained at a temperature of about 4 ° C. for 7 days. After 7 days, the vials are removed from the refrigerator. Evidence of crystal formation or precipitation in the compositions is examined.

[2] = at 25 °C; cited from earlier work

Results from stability test ([1]; 2% niacinamide in water): Crystals formed | Results from stability test ([1]; 3% niacinamide in water): Crystals formed | Results from stability test ([1]; 4% niacinamide in water): Crystals formed | Results from stability test ([1]; 7% urea in water): Crystals formed | Results from stability test ([1]; 8% urea in water): Crystals formed | Results from stability test ([1]; 9% urea in water): Crystals formed | Results from stability test ([1]; 13% N-2-hydroxyethyl urea in water): Crystals formed | Results from stability test ([1]; 14% N-2-hydroxyethyl urea in water): Crystals formed | Results from stability test ([1]; 15% N-2-hydroxyethyl urea in water): Crystals formed | result from the stability test, in words ([1]; composition containing 2.0% N-2-hydroxyethyl urea, 2.0% niacinamide, 2.0% urea and 1.0% metronidazole): stable
SMILES: Cc1ncc([N+](=O)[O-])n1CCO [Metronidazole, 1-(2-hydroxyethyl)-2-methyl-5-nitroimidazole]
Results from stability test ([1]; 2.0% urea, 2.0% N-2-hydroxyethyl urea, 2.0% niacinamide in water): Clear (‘clear’ means no crystals or precipitates) | Results from stability test ([1]; 3.0% urea, 3.0% N-2-hydroxyethyl urea, 1.5% niacinamide in water): Clear (‘clear’ means no crystals or precipitates) | Results from stability test ([1]; 5% niacinamide in water): Clear (‘clear’ means no crystals or precipitates) | Results from stability test ([1]; 10% urea in water): Clear (‘clear’ means no crystals or precipitates) | Results from stability test ([1]; 16% N-2-hydroxyethyl urea in water): Clear (‘clear’ means no crystals or precipitates)

concentration of the solubility enhancing agent required to obtain a stable aqueous solution of 1.0% metronidazole [1]: about 16%
SMILES: NC(=O)NCCO [N-2-hydroxyethyl urea]

concentration of the solubility enhancing agent required to obtain a stable aqueous solution of 1.0% metronidazole [1]: about 5% | N-2-hydroxyethyl urea concentration functionally equivalent to 1% of the agent in inducing the solubility enhancing effect [1]: about 3.2%
SMILES: NC(=O)c1cccnc1 [niacinamide]
water solubility limit [2]: about 50 % by weight

concentration of the solubility enhancing agent required to obtain a stable aqueous solution of 1.0% metronidazole [1]: about 10% | N-2-hydroxyethyl urea concentration functionally equivalent to 1% of the agent in inducing the solubility enhancing effect [1]: about 1.6%
SMILES: NC(N)=O [urea]

From patent US20080312304A1, “Topical compositions containing metronidazole” (priority 2007, published 2008)
